According to PubChem BioAssay AID179 (DTP/NCI, 2004):
“And” between values parts separate entries of the source, which are not always exact repeats. Identical values can stand only once. The source made the active and inactive calls.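 How the source made its calls: active means compounds giving half or more protection of infected cells from virus-caused growth loss, again on retest; inactive means the rest.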

System: CEM cells HIV-1 protection, formazan growth assay
Assay: NCI AIDS Antiviral Assay
Conditions: for IC50: measured here: growth of uninfected CEM cells
Summary of the method: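 Protection of CEM cells against HIV-1 was scored from cell growth (soluble formazan) across five concentrations, with parallel uninfected cells. Lack of protection may reflect toxicity.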

| Structure (SMILES) | EC50 | IC50 | outcome |
| --- | --- | --- | --- |
| CC(C)(C)C(=O)OCOP(=O)(O)OCC1CCC(N2C=CC(N)NC2=O)O1 (stereo not given) | 0.0468 µM | 16.2 µM | – |
| COP(=N[Si](C)(C)C)(OC)OC | > 200 µM | > 200 µM | – |
| [Cu+2].[O-]/C(=N\N=C/c1cccc(F)c1)c1ccncc1.[O-]/C(=N\N=C\c1cccc(F)c1)c1ccncc1 | > 100 µM | 24.5 µM | – |
| O=C(CCN1CCN(CCC(=O)c2ccccc2)CC1)c1ccccc1 | > 200 µM | 9.12 µM | – |
| C=C1c2[nH]c3ccccc3c2CC(C(=O)O)N1C(O)c1ccc(S(=O)(=O)O)cc1 (stereo not given) | – | – | inactive |
| Cc1cn(COCCCO)c(=O)[nH]c1=O | > 200 µM | > 200 µM | – |
| CC1CCC(=O)NCCCCC(=O)N1 (stereo not given) | > 36.3 µM | > 36.3 µM | – |
| O=C1C=C(N2CC2)C(=O)C=C1N1CC1 | > 0.2 µM | 0.0141 µM | – |
| S=c1nc(/C=C/c2ccc(Cl)c(Cl)c2)[nH][nH]1 | > 36.3 µM | > 36.3 µM | – |
| O=c1c2ccccc2n2nnc3ccc(NCCCNCCNCCCNc4ccc5nnn6c7ccccc7c(=O)c4c56)c1c32 | > 0.0501 µM | 0.0347 µM | – |
| COc1cccc(NC(=O)CC(=O)N2N=C(N(CCC#N)c3ccccc3C)CC2c2ccccc2)c1 (stereo not given) | > 501 µM | > 501 µM | – |
| N#CCCN(c1ccc(C=Nc2ccccc2Cl)cc1)S(=O)(=O)c1ccccc1 | > 427 µM | 331 µM | – |
| CNC(=O)C(C)Oc1ccc(OCC2CCCCC2)cc1 (stereo not given) | > 170 µM | 30.2 µM | – |
| O=C(Nc1ccc(Br)cc1)c1c(-c2ccccc2)c2ccc(O)cc2oc1=O | > 34.7 µM | 32.4 µM | – |
| COC1=CC(=O)NCCN1 | 135 µM | 479 µM | – |
| COc1cc([C@@H]2OC(=O)C3C2C(=O)O[C@H]3c2ccc(O)c(OC)c2)ccc1O (stereo not given in full) | – | – | inactive |
| N#C/C(=C\c1ccc(Cl)cc1)c1nc(-c2cc3ccccc3oc2=O)cs1 | > 151 µM | > 151 µM | – |
| CCCCCCCCCCCCCC(=O)OCC(C[As](=O)(O)O)OC(=O)CCCCCCCCCCCCC (stereo not given) | > 11.5 µM | > 11.5 µM | – |
| CC(C)OCN1COCN=C1NC#N | > 447 µM | > 447 µM | – |
| O=C(O)c1cc(N=Nc2cc(S(=O)(=O)O)c3cccnc3c2O)ccc1/C=C/c1ccc(N=Nc2cc(S(=O)(=O)O)c3cccnc3c2O)cc1C(=O)O | 4.27 µM and 21.4 µM | 61.7 µM and > 200 µM | – |
| N#C/C(=C\N1CC(=O)NC1=S)C(=O)c1ccc2ccccc2c1 | > 200 µM | 158 µM | – |
| O=c1[nH]c2cc(Cl)ccc2nc1/C(=N\Nc1ccccc1)C(O)c1ccc(Cl)c(Cl)c1 (stereo not given) | > 219 µM | 18.2 µM | – |
| COc1ccc(C2CC3(c4ccccc4)ON=C(c4ccccc4)N3c3ccccc3S2)cc1 (stereo not given) | > 200 µM | > 200 µM | – |

| Structure (SMILES) | EC50 | IC50 | outcome |
| --- | --- | --- | --- |
| CC1C2CC3(c4ccccc4)CC(/C2=N\O)/C(=N/O)C1[C@@]3(C)O (stereo not given in full) | > 200 µM | > 200 µM | – |
| COc1cccc(NC(=O)c2c(SC)c(C#N)c(=O)n(N)c2N)c1 | > 200 µM | 107 µM | – |
| CCCCc1c2c(nc3c1CC/C(=C\c1ccc([N+](=O)[O-])cc1)C3=O)CCCC2 | > 6.92 µM | 1.32 µM | – |
| O=c1[nH]c(=O)n(C2CC(F)(F)C(CO)O2)cc1COCC(F)(F)F (stereo not given) | > 174 µM | > 174 µM | – |
| COc1ccc2c(c[n+](C)c3c4cc5c(cc4ccc23)OCO5)c1OC | > 3.24 µM | 0.372 µM | – |
| COc1ccc2c(c1)OC[C@@H]1c3cc(NS(=O)(=O)c4ccccc4)cc(OCc4ccccc4)c3O[C@H]21 | 10.2 µM | 13.5 µM | – |
| Cn1c([C@H](C#N)c2ncccc2[N+](=O)[O-])nc2ccccc21 | > 200 µM | 110 µM | – |
| CN(C)c1ccc(/C=C/C(=O)C(C)(C)C)cc1Br | > 32.4 µM | 21.4 µM | – |
| CCCCCCCCCCCOc1ccc(C(=O)C(=O)c2ccc(OCCCCCCCCCCC)c(OCCCCCCCCCCC)c2)cc1OCCCCCCCCCCC | > 10.5 µM | > 10.5 µM | – |
| N#CC1(C#N)C(C#N)(C#N)C12CCCC2 | > 20 µM | 10.5 µM | – |
| [N-]=[N+]=Nc1ccc(SSCCC(=O)ON2C(=O)CCC2=O)cc1 | > 200 µM | 7.59 µM | – |
| CN1CCN=C1c1nnn(-c2ccc([N+](=O)[O-])cc2)c1-c1ccccc1 | 57.5 µM | 145 µM | – |
| O=C1OC(c2ccccc2)=N/C1=C\c1ccc(Br)cc1 | > 4.37 µM | > 4.37 µM | – |
| c1ccc(-c2cc(-c3cccs3)c(-c3cccs3)o2)cc1 | > 200 µM | 25.7 µM | – |
| O=C(CC(C(=O)c1cccs1)c1ccsc1)c1ccco1 (stereo not given) | > 200 µM | 32.4 µM | – |
| O=c1nc2occc2cn1C1CC(O)C(CO)O1 (stereo not given) | > 513 µM | > 513 µM | – |
| CN1CC(=O)Nc2c(ncn2C2OC(CO)C(O)C2O)C1=O (stereo not given) | > 229 µM | > 229 µM | – |
| CCOC(=O)C(=Cc1cccc(F)c1)C(=O)OCC | > 355 µM | 22.4 µM | – |
| CCCCCC(=O)C(C)C1=Nc2nnc(CCCCCCCc3nnc4n3C(=O)C(C(C)C(=O)CCCCC)=N4)n2C1=O (stereo not given) | > 2.45 µM | > 2.45 µM | – |
| Cc1nc2c(nc1Cl)nc(Oc1ccc(Cl)cc1)c1ccccc12 | > 28.2 µM | > 28.2 µM | – |
| Cc1ccc(S(=O)(=O)Nn2c(O)c(C#N)c(-c3ccc(Cl)cc3)c(C#N)c2=O)cc1 | > 200 µM | > 200 µM | – |
| CC(C)(C)OC(=O)C1C(=O)C(C(=O)OC(C)(C)C)C23CCCCC12C(C(=O)OC(C)(C)C)C(=O)C3C(=O)OC(C)(C)C (stereo not given) | > 30.2 µM | > 30.2 µM | – |
| O=C1C(=O)c2ccccc2C(O)=C1C(C1=C(O)c2ccccc2C(=O)C1=O)c1ccc(Cl)c(Cl)c1 | > 200 µM | 18.6 µM | – |

| Structure (SMILES) | EC50 | IC50 | outcome |
| --- | --- | --- | --- |
| CC1=CC(C)C(=O)N(C)C(C)=C1 (stereo not given) | > 1510 µM | 457 µM | – |
| COC(=O)C(Cc1cn(C(C)=O)c2ccccc12)P(=O)(OC)OC (stereo not given) | > 200 µM | > 200 µM | – |
| Clc1nc2n(c1/C=C/c1cccs1)CCS2 | > 200 µM | 20.4 µM | – |
| O=S(Cc1ccccc1)/C(=C/NC(=S)N=Nc1c(O)[nH]c2ccccc12)c1ccccc1 (stereo not given) | 58.9 µM | 178 µM | – |
| OC(c1ccc(Cl)cc1)(c1ccc(Cl)cc1)c1cncnc1 | – | – | inactive |
| COc1cc2c(cn1)[nH]c1ccccc12 | – | – | inactive |
| CCC1S(=O)(=O)OCCOS1(=O)=O | > 1070 µM | 64.6 µM | – |
| CC(=O)On1c(-c2ccccc2)nc2ccccc2c1=S | > 200 µM | 1.35 µM | – |
| O=C(Nc1ccccc1S)c1ccccc1 | 6.76 µM | 10.5 µM | – |
| CN1C(=O)C2(C#N)C(C)(C)C2(C#N)C1=O (stereo not given) | > 200 µM | > 200 µM | – |
| Cc1cc(Cc2cccc3ccccc23)nc2c1ccc1ccccc12 | > 200 µM | 110 µM | – |
| CC(=O)Nc1ccc2oc(=O)ccc2c1 | > 1230 µM | 562 µM | – |
| Cc1cc(=O)oc2cc(OCc3nc4ccccc4c(=O)n3-c3ccccc3)ccc12 | > 43.7 µM | > 43.7 µM | – |
| O=C1c2sc(-c3ccc(F)cc3)cc2-n2cccc21 | > 200 µM | 120 µM | – |
| CN(C)c1nc(=Nc2cccc(Cl)c2)ss1 | – | – | inactive |
| COc1ccc(C(=O)N2c3ccccc3N(C)n3cccc3C2CC(=O)O)cc1 (stereo not given) | > 646 µM | 234 µM | – |
| Cc1ccc(NC(=O)OCC(COc2ccc(Cl)cc2Cl)OC(=O)Nc2ccc(C)cc2)cc1 (stereo not given) | > 2.88 µM | > 2.88 µM | – |
| O=C(O)c1ccsc1Cc1cccs1 | > 200 µM | > 200 µM | – |
| O=C1CCCc2sccc21 | > 200 µM | > 200 µM | – |
| CN(C)CCCN=C(N)N | > 200 µM | > 200 µM | – |
| CC(C)(C)C1CCP(=O)(c2ccccc2)CC1 (stereo not given) | 0.0631 µM | > 200 µM | – |
| CC(C)(C)N=C1CC(C)(C)c2ccccc2C(=Nc2ccccc2)S1 | – | – | inactive |
| CO[C@@]12[C@@H]3N[C@@H]3CN1C1=C(C(=O)C(N3CCOCC3)=C(C)C1=O)[C@@H]2COC(N)=O | > 200 µM | > 200 µM | – |

| Structure (SMILES) | EC50 | IC50 | outcome |
| --- | --- | --- | --- |
| C=C(CCCCCOCOCCOC)[Si](C)(C)C | > 26.3 µM | > 26.3 µM | – |
| CC(O)C1OC(O)C2OC(C)(C)OC12 (stereo not given) | > 200 µM | > 200 µM | – |
| Cc1cc(Cl)ccc1NC(=O)/C(CC(=O)CC(c1ccccc1)c1c(O)c2ccccc2oc1=O)=N\O (stereo not given) | > 132 µM | 95.5 µM | – |
| CCCCOC(=O)NC(Nc1cccc(C(F)(F)F)c1)(C(F)(F)F)C(F)(F)F | > 200 µM | 50.1 µM | – |
| [N-]=[N+]=NCCCCCCCCCCCC(=O)O | > 200 µM | 81.3 µM | – |
| Cc1ccc(-c2nc(SCC(=O)O)n[nH]2)cc1 | > 1000 µM | 708 µM | – |
| CCN=C(C#N)NCC | > 708 µM | 257 µM | – |
| CC(=O)/C(=C/n1c(=S)[nH]c2ccccc21)C(=O)Nc1ccccc1C | > 200 µM | > 200 µM | – |
| COC(=O)CC1C2CCC1C(=O)C2 (stereo not given) | > 200 µM | > 200 µM | – |
| O=C(Nc1ccc(Cl)c(Cl)c1)C(=O)Nn1c(=S)[nH]c2ccccc2c1=O | > 437 µM | 257 µM | – |
| CC(=O)C(CN1C(=O)c2ccccc2C1=O)C(C)=O | > 38.9 µM | > 38.9 µM | – |
| Cc1cc(C)nc(NC(P(=O)(O)O)P(=O)(O)O)n1 | > 200 µM | > 200 µM | – |
| COC1=CC=C2CC(=C1)CCC1C2CCC2(C)C(=O)CCC12 (stereo not given) | – | – | inactive |
| CN(C)CC1CN(C(=O)Nc2ccccc2)C(=N)O1 (stereo not given) | > 200 µM | > 200 µM | – |
| Cc1cc2c(cc1C)N1Cc3c(ccc(C)c3C)N(C2)C1 (tested in a mixture with another compound) | – | – | inactive |
| CCN(CCCN(CC)C(=O)Nc1c(C)cccc1C)C(=O)Nc1c(C)cccc1C | > 200 µM | > 200 µM | – |
| CC1=NN(C(=O)c2ccccc2O)C(=O)/C1=C/c1cccc([N+](=O)[O-])c1 | > 141 µM | 0.0977 µM | – |
| NC(CSS(=O)(=O)O)=NCc1ccccc1 | > 200 µM | > 200 µM | – |
| CN(C)CCOc1ccc(/C(=C(/CCCl)c2ccccc2)c2ccccc2)cc1 | > 43.7 µM | 0.38 µM | – |
| Cc1ccc(O)c(C(c2ccc(C(c3cc(C)ccc3O)c3cc(C)ccc3O)cc2)c2cc(C)ccc2O)c1 | > 20 µM | 3.09 µM | – |
